US9382517B2, “HCV full-length infectious cell culture systems and applications thereof” (priority 2012, dated 2016)

Key:
TN full-length virus = assay: HCV antiviral treatment of Huh7.5 cells infected with TN full-length virus (first passage TN_LSGF/A1226G/Q1773H); format: cell-based, hepatitis C virus (genotype 1a); settings: for inhibition of TN full-length virus: DAAs 24 hours post-infection, interferon-α2b 24 and 48 hours, HCV positive cells 72 hours post-infection
Description: (§1) Naïve Huh7.5 cells were infected with first passage virus stock of TN full-length recombinant TN_LSGF/A1226G/Q1773H; the ORF sequence of this virus stock is shown in FIGS. 16 and 17. A J6/JFH1 virus stock was treated in parallel. Antivirals were administered 24 hours post infection at the indicated doses; interferon-α2b was also administered 48 hours post infection. The number of HCV positive cells per well was determined 72 hours post infection. (A) Dose response curves for treatments with lead compound protease inhibitors telaprevir (VX-950), boceprevir (SCH503034), and simeprevir (TMC435), NS5A inhibitor daclatasvir (BMS-790052), and NS5B inhibitor PSI-7977, as well as interferon-α2b. Values are means of triplicate determinations with SEM. (B) Median effective concentrations (EC50) of the used inhibitors against the indicated viruses. Values for EC50 and 95% confidence interval are shown.
(§2) HCV antiviral treatment. HCV DAAs were purchased from Acme Bioscience (Palo Alto, Calif.) and dissolved in dimethyl sulfoxide. Inerferon-α2b was purchased from Schering-Plough (Kenilworth, N.J.).
Briefly, Huh7.5 cells grown in poly-D-lysine-coated 96-well plates (Nunc) were infected with HCV and treated with DAAs 24 hours post-infection. Treatment with interferon-α2b was performed at 24 and 48 hours post-infection. Single HCV Core and NS5A positive cells were determined 72 hours post-infection by immunostaining with combination of C7-50 (Enzo Life Sciences) and 9E10 antibodies. Dose response curves were fitted and EC50 values with 95% confidence interval were calculated in GraphPad Prim 4 (Graphpad).

Huh7.5 cells = assay: Cytotoxicity assay, non-cytotoxic dose range (Example 3); format: cell-based, human; settings: at the doses used in this study
Description: A cytotoxicity assay was performed for PSI-7977, as we had not used this drug previously. The non-cytotoxic dose range for telaprevir, boceprevir, simeprevir, daclatasvir, and interferon-α2b was determined.

J6 full-length virus = assay: HCV antiviral treatment of Huh7.5 cells infected with J6 full-length virus (fourth passage J6_LSGΔ33U); format: cell-based, hepatitis C virus (genotype 2a); settings: for inhibition of full-length J6 culture viruses: treatment 24 and 48 hours post-infection, HCV positive cells counted 72 hours post-infection
Description: (§3) Naïve Huh7.5 cells were infected with indicated viruses, and antiviral treatments were carried out at 24 and 48 hours post-infection. The HCV positive cells were counted 72 hours post-infection as previously described. Fourth passage J6 full-length J6_LSGΔ33U virus (Table 3) was used for treatment. Treatment experiments with recombinants J6^5′UTR-NS2/JFH1, J6^Core-NS2,NS3 protease, NS4A/JFH1 and J6^Core-NS2,NS5A/JFH1 were included for comparison. (A) Treatment with protease inhibitors (boceprevir and TMC435) and the NS5A inhibitor daclatasvir (BMS-790052). (B) Treatment with NS5B inhibitors. (C) Median effective concentrations (EC50) of the used inhibitors against the indicated viruses. *, range of two experiments; experiments with the lowest EC50 shown in A or B. In A and B, values are means of triplicate determinations.
(§4) HCV antiviral treatment. HCV antivirals were purchased from Acme Bioscience (Palo Alto, Calif.) and dissolved in dimethyl sulfoxide. Huh7.5 cells grown in poly-D-lysine-coated 96-well plates (Nunc) were infected with HCV and treated with antivirals 24 and 48 hours post-infection as previously described. Single HCV core positive cells were determined by immunostaining with C7-50 (Enzo Life Sciences) 72 hours post-infection.

[1] = test system: J6/JFH1 with J6-specific NS3/NS4A protease; assay: HCV antiviral treatment of Huh7.5 cells infected with J6/JFH1 with J6-specific NS3/NS4A protease; format: cell-based, hepatitis C virus (genotype 2a); settings: J6/JFH1 with J6-specific NS3/NS4A protease compared to J6^5′UTR-NS2/JFH1
Description: as §3, §4

J6/JFH1 = assay: HCV antiviral treatment of Huh7.5 cells infected with J6/JFH1 virus stock; format: cell-based, hepatitis C virus (genotype 2a); settings: stated for HCV of genotypes 1 and 2
Description: as §1, §2
Briefly, Huh7.5 cells grown in poly-D-lysine-coated 96-well plates (Nunc) were infected with HCV and treated with DAAs 24 hours post-infection. […] Single HCV Core and NS5A positive cells were determined 72 hours post-infection by immunostaining with combination of C7-50 (Enzo Life Sciences) and 9E10 antibodies. […]

[2] = test system: J6/JFH1-based recombinant with TN NS5A; assay: HCV antiviral treatment, J6/JFH1-based recombinant with TN NS5A; format: cell-based; settings: Hepatitis C virus, read-out: Median effective concentration (EC50)
[3] = J6 virus compared to J6^5′UTR-NS2/JFH1

| Compound | inhibition of TN full-length virus (TN full-length virus) | cytotoxic effects (Huh7.5 cells) | inhibition of full-length J6 culture viruses (J6 full-length virus) | fold lower EC50 compared to J6^5′UTR-NS2/JFH1 (J6 full-length virus; [3]) | other results |
| --- | --- | --- | --- | --- | --- |
| interferon-α2b | dose-dependently inhibited | No cytotoxic effects |  |  |  |
| COc1ccc2c(O[C@@H]3C[C@H]4C(=O)N[C@]5(C(=O)NS(=O)(=O)C6CC6)C[C@H]5/C=C\CCCCN(C)C(=O)[C@@H]4C3)cc(-c3nc(C(C)C)cs3)nc2c1C [TMC435, simeprevir] | dose-dependently inhibited | No cytotoxic effects | inhibited |  | fold higher EC50 than that found for J6^5′UTR-NS2/JFH1 (J6 full-length virus; [3]): 2-3 fold; fold higher EC50 than that found for J6^5′UTR-NS2/JFH1 [1]: 2-3 fold |
| CNC(=O)c1c(-c2ccc(F)cc2)oc2cc(N(CCO)S(C)(=O)=O)c(C3CC3)cc12 [HCV-796] |  |  | inhibited | ~2 fold |  |
| CCC[C@H](NC(=O)[C@@H]1[C@H]2CCC[C@H]2CN1C(=O)[C@@H](NC(=O)[C@@H](NC(=O)c1cnccn1)C1CCCCC1)C(C)(C)C)C(=O)C(=O)NC1CC1 [telaprevir] |  | No cytotoxic effects |  |  |  |
| CC(C)[C@H](N)C(=O)O[C@@H]1[C@@H](CO)O[C@@H](n2ccc(N)nc2=O)[C@]1(C)O [NM283] |  |  | inhibited | ~6 fold |  |
| CC(C)OC(=O)[C@H](C)N[P@](=O)(OC[C@H]1O[C@@H](n2ccc(=O)[nH]c2=O)[C@](C)(F)[C@@H]1O)Oc1ccccc1 [PSI-7977] | dose-dependently inhibited | No cytotoxic effects |  |  | inhibition of HCV of genotype 2 (J6/JFH1) (J6/JFH1): efficiently inhibit |
| COC(=O)N[C@H](C(=O)N1CCC[C@H]1c1nc(-c2ccc(-c3ccc(-c4c[nH]c([C@@H]5CCCN5C(=O)[C@@H](NC(=O)OC)C(C)C)n4)cc3)cc2)c[nH]1)C(C)C [daclatasvir] |  | No cytotoxic effects |  |  | EC50 (TN full-length virus; Hepatitis C virus, TN full-length virus, 72 hours post-infection, read-out: Median effective concentration (EC50)): 0.032 nM; EC50 [2]: 0.042 nM |
| C[C@@]1(F)[C@H](O)[C@@H](CO)O[C@H]1n1ccc(N)nc1=O [PSI-6130] |  |  | inhibited | around 4 fold |  |
| CC(C)(C)NC(=O)N[C@H](C(=O)N1C[C@H]2[C@@H]([C@H]1C(=O)NC(CC1CCC1)C(=O)C(N)=O)C2(C)C)C(C)(C)C (stereo partly drawn) [boceprevir] |  | No cytotoxic effects |  |  |  |
